According to US20250025435A1, “CO-CRYSTALS OF NONSTEROIDAL ANTI-INFLAMMATORY DRUGS, LYSINE AND GABAPENTIN, PHARMACEUTICAL COMPOSITIONS AND THEIR MEDICAL USE” (DOMPE' FARMACEUTICI SPA, priority 2021, published 2025):

How the values were obtained:
[1] = tested on: carrageenan-induced rat paw edema; experiment: Carrageenan-induced rat paw edema test; type: in vivo, Male Wistar rats; conditions: for volume reduction of paw edema in rats (%): vs vehicle-treated group, single oral dose; for paw thickness: mean±SEM, n=8, vehicle 9.55±0.47 mm
[2] = tested on: mechanical allodynia in carrageenan-injected rats; experiment: Mechanical allodynia (von Frey, up and down method) in rat carrageenan-induced paw edema model; type: in vivo, Male Wistar rats; conditions: 3 h post-carrageenan; ipsilateral paw; n=8; vehicle 8.25±1.61 g, baseline 80±7.56 g
[3] = cited from earlier work
[4] = design: species or system Sprague Dawley male rat; conditions: rat, in vivo, po
Source text: Sprague Dawley male rat (body weights 310 gr at the time of the treatment) were used in this study. The animals were originally supplied by Harlan, Italy. Once receipt from the supplier, the animals were subjected to health examinations and acceptance. The animals were housed, in a group of three, in cages suitable for the species and were routinely kept in the following environment except for short periods of time where experimental procedures dictated otherwise. The animals were acclimatized to local housing conditions for approximately 5 days. The animals were housed in a single, exclusive room, air conditioned to provide a minimum of 15 air changes/hour. The environmental controls were set to maintain temperature within the range 22° C. and relative humidity within the range 50 to 60% with an approximate 12 hour light and 12 hour dark cycle that is controlled automatically. Food (Mucedola Standard GLP diet) and water were available ad libitum throughout the study. All animals were weighed on the day of each treatment. Clinical signs were monitored at regular intervals throughout the study in order to assess any reaction to treatment. Each animal was uniquely identified with a coloured spray on the back before the experiment. At the end of the study animals were sacrificed by exsanguination under anaesthesia. […]

Row | Compound | volume reduction of paw edema in rats (%) ([1]; 1 h post-carrageenan) | volume reduction of paw edema in rats (%) ([1]; 3 h post-carrageenan) | paw thickness ([1]; 5 h post-carrageenan) | volume reduction of paw edema in rats (%) ([1]; 5 h post-carrageenan) | paw withdrawal threshold [2] | time to utmost level in plasma ([3]; after oral administration (Quintero 2017)) | excretion half-life ([3]; expelled by the renal system) | Cmax (ng/mL) Flurbiprofen [4] | Cmax (ng/mL) Gabapentin [4]
1 | NCC1(CC(=O)O)CCCCC1 [Gabapentin] | −1.93% | −16.21% | 7.45±0.26 mm | −17.27% | 66.5 ± 11 g | 3 to 4 h | roughly 6 hours |  | 
2 | Flurbiprofen-Lysine-Gabapentin [Flur/Lys/Gaba] | −21.80% | −39.91% | 5.51±0.42 mm | −42.27% | 85.75 ± 9.86 g |  |  | 14725 ± 1267 ng/mL | 3008 ± 246 ng/mL
3 | COc1ccc2c(c1)c(CC(=O)O)c(C)n2C(=O)c1ccc(Cl)cc1 [Indomethacin] | −17.68% | −35.27% | 5.69±0.27 mm | −40.45% | 36 ± 7.21 g |  |  |  | 
4 | CC(C(=O)O)c1ccc(-c2ccccc2)c(F)c1 (stereo not drawn) [Flurbiprofen] | −18.20% | −31.50% | 6.5±0.28 mm | −32.0% | 44.62 ± 14.43 g |  |  |  | 
